Experimental data reported in ChEMBL document CHEMBL5380785, “Application of Novel Degraders Employing Autophagy for Expediting Medicinal Research” (J Med Chem, 2023).
Values belong to the compound of their own block, whether it stands above or below them.

Key:
[1] = biological target: T1, Sequestosome-1/Estrogen receptor beta (Homo sapiens, UniProt Q92731+Q13501); assay: Autotac activity at p62/ERbeta degradation in HEK293T cells; assay type: cell-based
[2] = biological target: T1, Sequestosome-1/Estrogen receptor beta; assay: Autotac activity at p62/ERbeta degradation in human ACHN cells; assay type: cell-based
[3] = biological target: T1, Sequestosome-1/Estrogen receptor beta; assay: Autotac activity at p62/ERbeta degradation in human MCF7 cells; assay type: cell-based
Estrogen receptor beta [4] = biological target: T2, Estrogen receptor beta (Homo sapiens, UniProt Q92731); assay: Induction of ERbeta degradation in human HEK293T cells; assay type: cell-based
T2 sequence (Q92731 whole entry): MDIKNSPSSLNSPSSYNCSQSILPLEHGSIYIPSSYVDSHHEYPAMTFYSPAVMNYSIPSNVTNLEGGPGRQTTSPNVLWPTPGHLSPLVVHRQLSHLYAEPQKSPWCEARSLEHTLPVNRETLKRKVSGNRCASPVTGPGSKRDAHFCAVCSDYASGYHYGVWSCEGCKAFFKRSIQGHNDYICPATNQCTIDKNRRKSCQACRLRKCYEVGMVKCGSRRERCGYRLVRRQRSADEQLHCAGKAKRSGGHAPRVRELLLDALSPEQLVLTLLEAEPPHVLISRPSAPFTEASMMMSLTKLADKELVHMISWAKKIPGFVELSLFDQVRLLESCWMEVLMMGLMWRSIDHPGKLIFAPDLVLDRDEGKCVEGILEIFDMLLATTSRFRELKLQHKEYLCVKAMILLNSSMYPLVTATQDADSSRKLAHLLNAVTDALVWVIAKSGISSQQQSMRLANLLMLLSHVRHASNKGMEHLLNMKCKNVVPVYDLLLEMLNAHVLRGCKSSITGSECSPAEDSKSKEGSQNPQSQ

Estrogen receptor beta [5] = biological target: T2, Estrogen receptor beta; assay: Induction of ERbeta degradation in human ACHN cells; assay type: cell-based
Estrogen receptor beta [6] = biological target: T2, Estrogen receptor beta; assay: Induction of ERbeta degradation in human MCF7 cells; assay type: cell-based
Cortical neuron = assay: Induction of huntingtin polyQ mutant degradation in mouse primary cortical neuron; assay type: cell-based; settings: dose 10.0 µM
[7] = Induction of huntingtin polyQ mutant degradation in human A 172 cells; assay type: cell-based
[8] = biological target: T3, Nicotinamide phosphoribosyltransferase (Homo sapiens, UniProt P43490); assay: Induction of NAMPT degradation in human A2780 cells; assay type: cell-based
Target sequence in this assay (P43490 whole entry): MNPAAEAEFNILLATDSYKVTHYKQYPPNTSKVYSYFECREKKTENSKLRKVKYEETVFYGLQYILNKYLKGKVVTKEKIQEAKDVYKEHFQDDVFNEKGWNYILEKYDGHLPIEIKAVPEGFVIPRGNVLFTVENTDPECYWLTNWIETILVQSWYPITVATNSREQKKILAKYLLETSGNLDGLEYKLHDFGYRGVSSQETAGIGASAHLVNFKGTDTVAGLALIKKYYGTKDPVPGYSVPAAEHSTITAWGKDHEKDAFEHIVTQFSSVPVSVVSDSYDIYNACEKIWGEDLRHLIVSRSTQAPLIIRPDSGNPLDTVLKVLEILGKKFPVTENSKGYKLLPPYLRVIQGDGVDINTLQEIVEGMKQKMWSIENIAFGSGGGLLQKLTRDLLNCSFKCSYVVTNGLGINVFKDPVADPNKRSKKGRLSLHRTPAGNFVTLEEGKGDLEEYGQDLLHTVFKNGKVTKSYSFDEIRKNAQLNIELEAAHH

[9] = biological target: T3, Nicotinamide phosphoribosyltransferase; assay: Induction of NAMPT degradation in human A2780 cells at 3 uM relative to control; assay type: cell-based
Target sequence in this assay (P43490 whole entry, looked up): as the sequence (P43490 whole entry) above

Androgen receptor = biological target: T4, Androgen receptor (Homo sapiens, UniProt P10275); assay: Induction of AR degradation in human LNCaP cells; assay type: cell-based
T4 sequence (P10275 whole entry): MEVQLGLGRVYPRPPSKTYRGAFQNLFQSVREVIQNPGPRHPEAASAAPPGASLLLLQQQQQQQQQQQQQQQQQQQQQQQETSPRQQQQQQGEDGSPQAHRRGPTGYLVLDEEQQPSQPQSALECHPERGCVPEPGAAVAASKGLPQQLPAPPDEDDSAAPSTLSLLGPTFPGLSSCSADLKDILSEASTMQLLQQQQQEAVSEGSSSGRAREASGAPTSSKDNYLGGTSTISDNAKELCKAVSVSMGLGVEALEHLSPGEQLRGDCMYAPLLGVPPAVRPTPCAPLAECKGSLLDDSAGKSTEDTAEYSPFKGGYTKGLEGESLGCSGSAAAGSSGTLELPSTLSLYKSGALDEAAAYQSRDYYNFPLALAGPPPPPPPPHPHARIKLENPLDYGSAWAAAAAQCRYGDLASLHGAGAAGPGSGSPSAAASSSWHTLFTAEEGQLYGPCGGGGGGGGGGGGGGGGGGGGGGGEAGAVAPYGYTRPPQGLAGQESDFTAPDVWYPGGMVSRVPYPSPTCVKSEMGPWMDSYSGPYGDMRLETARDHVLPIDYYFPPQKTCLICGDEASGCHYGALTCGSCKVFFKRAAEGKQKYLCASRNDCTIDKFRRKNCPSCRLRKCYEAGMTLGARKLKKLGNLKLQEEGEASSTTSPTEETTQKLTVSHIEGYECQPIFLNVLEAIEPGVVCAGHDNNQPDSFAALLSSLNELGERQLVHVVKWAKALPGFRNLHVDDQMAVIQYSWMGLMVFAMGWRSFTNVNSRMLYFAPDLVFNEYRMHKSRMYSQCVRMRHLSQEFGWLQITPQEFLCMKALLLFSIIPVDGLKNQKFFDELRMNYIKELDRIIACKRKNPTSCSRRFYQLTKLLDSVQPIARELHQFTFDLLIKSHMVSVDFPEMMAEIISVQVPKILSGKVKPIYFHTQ

[10] = Downregulation of extracellular oleic acid induced lipid droplets in MEF cells; assay type: functional, Mus musculus
[11] = biological target: Bromodomain-containing protein 4 (Homo sapiens) (UniProt O60885); assay: Induction of BRD4 degradation in human HeLa cells relative to control; assay type: cell-based
[12] = biological target: Bromodomain-containing protein 4 (Homo sapiens) (UniProt O60885); assay: Induction of BRD4 degradation in human MDA-MB-231 cells at 10 uM relative to control; assay type: cell-based
[13] = biological target: T5, Methionine aminopeptidase 2 (Homo sapiens, UniProt P50579); assay: Induction of MetAP2 degradation in human HEK293 cells; assay type: cell-based
T5 sequence (P50579 whole entry): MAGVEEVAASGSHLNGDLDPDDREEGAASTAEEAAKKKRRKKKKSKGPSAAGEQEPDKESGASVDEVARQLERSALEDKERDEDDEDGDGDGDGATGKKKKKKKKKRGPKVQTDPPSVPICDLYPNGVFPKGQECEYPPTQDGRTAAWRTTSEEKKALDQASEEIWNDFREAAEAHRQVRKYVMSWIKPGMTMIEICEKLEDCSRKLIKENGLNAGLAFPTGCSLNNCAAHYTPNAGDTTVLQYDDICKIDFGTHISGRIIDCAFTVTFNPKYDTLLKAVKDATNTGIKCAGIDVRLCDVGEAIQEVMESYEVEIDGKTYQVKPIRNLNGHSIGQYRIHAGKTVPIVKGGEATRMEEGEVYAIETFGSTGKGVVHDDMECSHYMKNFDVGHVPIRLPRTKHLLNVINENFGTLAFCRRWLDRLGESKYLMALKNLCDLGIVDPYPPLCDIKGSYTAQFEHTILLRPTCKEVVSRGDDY

[14] = biological target: T5, Methionine aminopeptidase 2; assay: Induction of MetAP2 degradation in human U87MG cells; assay type: cell-based; settings: u87mg human egfr viii
[15] = biological target: Sequestosome-1/Microtubule-associated protein tau (Homo sapiens, UniProt P10636+Q13501, P618L); assay: Autotac activity at p62/tau P301L mutant in human SH-SY5Y cells assessed as tau P301L degradation; assay type: cell-based
Sequence of Sequestosome-1/Microtubule-associated protein tau (P10636 2-758 P618L limits assumed, stated change not applied): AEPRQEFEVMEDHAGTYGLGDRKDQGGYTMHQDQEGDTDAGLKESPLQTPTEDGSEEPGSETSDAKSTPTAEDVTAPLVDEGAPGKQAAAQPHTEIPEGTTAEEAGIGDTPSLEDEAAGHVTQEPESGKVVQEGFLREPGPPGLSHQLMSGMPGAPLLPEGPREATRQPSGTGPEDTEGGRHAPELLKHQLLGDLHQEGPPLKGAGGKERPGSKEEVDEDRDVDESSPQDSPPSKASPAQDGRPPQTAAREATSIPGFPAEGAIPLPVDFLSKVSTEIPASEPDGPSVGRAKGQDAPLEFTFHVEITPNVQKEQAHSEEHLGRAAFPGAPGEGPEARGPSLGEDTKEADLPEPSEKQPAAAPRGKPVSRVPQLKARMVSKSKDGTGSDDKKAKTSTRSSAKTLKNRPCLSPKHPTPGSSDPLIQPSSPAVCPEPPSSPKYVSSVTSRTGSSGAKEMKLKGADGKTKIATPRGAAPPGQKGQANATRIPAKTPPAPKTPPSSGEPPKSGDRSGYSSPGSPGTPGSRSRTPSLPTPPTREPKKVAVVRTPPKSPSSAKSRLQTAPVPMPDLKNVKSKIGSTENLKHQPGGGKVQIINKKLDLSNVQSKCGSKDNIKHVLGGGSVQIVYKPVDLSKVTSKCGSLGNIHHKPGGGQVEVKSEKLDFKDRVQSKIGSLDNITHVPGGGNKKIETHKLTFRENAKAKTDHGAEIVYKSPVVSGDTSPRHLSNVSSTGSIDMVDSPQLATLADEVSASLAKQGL
Sequence of Sequestosome-1/Microtubule-associated protein tau (Q13501 2-440 limits assumed, stated change not applied): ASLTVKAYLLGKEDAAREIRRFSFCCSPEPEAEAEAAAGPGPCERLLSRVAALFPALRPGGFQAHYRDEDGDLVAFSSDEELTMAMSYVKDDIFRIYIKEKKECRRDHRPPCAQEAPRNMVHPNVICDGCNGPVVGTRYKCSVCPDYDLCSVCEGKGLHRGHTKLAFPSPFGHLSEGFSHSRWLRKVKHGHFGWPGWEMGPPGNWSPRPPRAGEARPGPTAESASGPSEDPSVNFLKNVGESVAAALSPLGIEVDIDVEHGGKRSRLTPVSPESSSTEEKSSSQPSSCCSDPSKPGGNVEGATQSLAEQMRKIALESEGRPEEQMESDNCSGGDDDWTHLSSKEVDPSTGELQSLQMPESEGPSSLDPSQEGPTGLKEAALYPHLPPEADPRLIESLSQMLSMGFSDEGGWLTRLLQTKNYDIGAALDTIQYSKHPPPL

T1 sequence (Q92731 whole entry): as the sequence (Q92731 whole entry) above
T1 sequence (Q13501 whole entry): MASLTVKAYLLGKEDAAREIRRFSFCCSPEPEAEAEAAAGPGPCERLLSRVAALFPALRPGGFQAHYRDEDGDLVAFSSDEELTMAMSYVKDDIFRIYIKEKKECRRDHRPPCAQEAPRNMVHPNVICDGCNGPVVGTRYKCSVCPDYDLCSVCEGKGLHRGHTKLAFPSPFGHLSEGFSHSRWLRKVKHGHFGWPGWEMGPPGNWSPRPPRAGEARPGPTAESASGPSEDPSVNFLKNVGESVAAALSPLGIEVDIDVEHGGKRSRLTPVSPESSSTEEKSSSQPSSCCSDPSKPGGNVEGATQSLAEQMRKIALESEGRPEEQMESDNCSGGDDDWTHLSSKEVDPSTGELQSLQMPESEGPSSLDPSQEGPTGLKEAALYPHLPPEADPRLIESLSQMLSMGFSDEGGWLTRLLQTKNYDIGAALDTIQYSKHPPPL

- DC50 [1]: 2 nM
- DC50 [2]: < 100 nM
- DC50 [3]: < 100 nM
- DC50 (Estrogen receptor beta [4]): 2 nM
- DC50 (Estrogen receptor beta [5]): < 100 nM
- DC50 (Estrogen receptor beta [6]): < 100 nM
Compound: O[C@H](CNCCOCCOCCOc1ccc(-c2c(-c3ccccc3)nn3c(C(F)(F)F)cc(C(F)(F)F)nc23)cc1)COc1ccc(OCc2ccccc2)c(OCCCc2ccccc2)c1

- IC50 [7]: 57.2 nM
Compound: H-GIYVIWGPITERKKRRKG-NH2

- Activity [11]: 92%
- Activity [12]: 99%
Compound: CC1=C(C)C2C(c3ccc(Cl)cc3)=N[C@@H](CC(=O)NCCCOCCOCCOCCCNC(=O)COc3c(Br)cc(/C=C4\C(=O)Nc5ccc(I)cc54)cc3Br)c3nnc(C)n3C2S1 (some centres undefined)

- DC50 [13]: 700 nM
- DC50 [14]: 500 nM
Compound: COC1C(OC(=O)/C=C/C=C/C=C/C=C/C(=O)NCCOCCOCCNCc2cccc(OCc3ccccc3)c2)CCC2(CO2)C1C1(C)OC1CC=C(C)C (centres undefined)

- DC50 [15]: 1 nM
Compound: O=C(CCCc1ccccc1)NCCOCCOCCOCCNCc1ccc(OCc2ccccc2)c(OCc2ccccc2)c1

The next lines start with the compound.

Compound: O=C1Nc2ccc(Br)cc2/C1=C/c1cc(O)c(O)c(Br)c1
- ED (Cortical neuron): 50 nM

Compound: Cc1ccc(C(=O)N(CCCNC(=O)CCCCCCCCN2CCN(S(=O)(=O)c3ccc(NC(=S)NCc4cccnc4)cc3)CC2)[C@@H](c2nc3cc(Cl)ccc3c(=O)n2Cc2ccccc2)C(C)C)cc1
- IC50 [8]: 40 nM
- Activity [9]: 91%

Compound: O=c1cc(-c2ccccc2)c2c(O)cc(O)cc2o1
- ED (Cortical neuron): 75 nM

Compound: C=CC(C)(O)C(=O)N(C(=O)NCCOCCOCCNC[C@@H](O)COc1ccc(OCCc2ccccc2)c(OCCCc2ccccc2)c1)c1cc(Cl)cc(Cl)c1 (some centres undefined)
- DC50 (Androgen receptor): 200 nM

Compound: Cc1ccccc1/N=N/c1ccc(/N=N/c2c(OCCCCCCCCCCOc3cc(O)cc4oc(=O)cc(-c5ccccc5)c34)ccc3ccccc23)c(C)c1
- ED [10]: 5 µM

Compound: Cc1ccccc1/N=N/c1ccc(/N=N/c2c(OCCCCCCCCCCN3C(=O)/C(=C\c4cc(Br)c(O)c(Br)c4)c4cc(I)ccc43)ccc3ccccc23)c(C)c1
- ED [10]: 5 µM
